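Dose response: 5 concentrations. Exposure: 48 h. Format: 96-well plates. Endpoint: linear interpolation; highest concentration if not reached. Abbreviation: GI50, concentration required for 50% inhibition of growth. Definition used: TGI = concentration required for complete inhibition of growth.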
How the values were obtained:
Assay in all cases: NCI-60 cell line screen, 48 h
[1] = tested on: EKVX NSCLC
[2] = tested on: IGROV1 ovarian
[3] = tested on: NCI-H522 lung
[4] = tested on: SK-MEL-5 melanoma
[5] = tested on: HL-60(TB) leukemia
[6] = tested on: SNB-19 CNS
[7] = tested on: SF-295 CNS
[8] = tested on: A498 renal
[9] = tested on: KM12 colon
[10] = tested on: UACC-257 melanoma
[11] = tested on: SF-539 CNS
[12] = tested on: OVCAR-5 ovarian
[13] = tested on: 786-0 renal
[14] = tested on: HCC-2998 colon
[15] = tested on: ACHN renal
[16] = tested on: MOLT-4 leukemia
[17] = tested on: TK-10 renal
[18] = tested on: KM20L2 colon
[19] = tested on: OVCAR-3 ovarian
[20] = tested on: UACC-62 melanoma
[21] = tested on: SN12C renal
[22] = tested on: SK-OV-3 ovarian
[23] = tested on: LXFL 529 NSCLC
[24] = tested on: DMS 273 small cell lung
[25] = tested on: HT29 colon
[26] = tested on: OVCAR-8 ovarian
[27] = tested on: A549 NSCLC
[28] = tested on: NCI-H460 lung
[29] = tested on: M14 melanoma
[30] = tested on: HOP-92 NSCLC
[31] = tested on: OVCAR-4 ovarian
[32] = tested on: LOX IMVI melanoma
[33] = tested on: SF-268 CNS
[34] = tested on: HOP-62 NSCLC
[35] = tested on: K-562 leukemia
[36] = tested on: U251 CNS
[37] = tested on: UO-31 renal
[38] = tested on: DLD-1 colon
[39] = tested on: SNB-75 CNS
[40] = tested on: NCI-H23 lung
[41] = tested on: HCT-15 colon
[42] = tested on: SNB-78 CNS
[43] = tested on: MALME-3M melanoma
[44] = tested on: HCT-116 colon
[45] = tested on: RPMI-8226 leukemia
[46] = tested on: SK-MEL-2 melanoma
[47] = tested on: SW-620 colon
[48] = tested on: SK-MEL-28 melanoma
[49] = tested on: CCRF-CEM leukemia
[50] = tested on: COLO 205 colon
[51] = tested on: CAKI-1 renal
[52] = tested on: RXF 393 renal
[53] = tested on: SR leukemia
[54] = tested on: NCI-H226 lung
[55] = tested on: DMS 114 small cell lung
[56] = tested on: M19-MEL melanoma
[57] = tested on: MDA-MB-231 breast
[58] = tested on: NCI/ADR-RES ovarian
[59] = tested on: MDA-MB-435
[60] = tested on: T-47D breast
[61] = tested on: BT-549 breast
[62] = tested on: MCF7 breast
[63] = tested on: HS 578T breast
[64] = tested on: MDA-N
[65] = tested on: DU-145 prostate
[66] = tested on: PC-3 prostate

## C/C=C/C(=O)[O-].C/C=C/C(=O)[O-].N.N.N.N.[Co+3].[O-][Cl+3]([O-])([O-])[O-]
[1]
  GI50: > 100 µM
  TGI: > 100 µM
[2]
  GI50: > 100 µM
  TGI: > 100 µM
[3]
  GI50: 83.9 µM
  TGI: > 100 µM
[4]
  GI50: > 100 µM
  TGI: > 100 µM
[5]
  GI50: > 100 µM
  TGI: > 100 µM
[6]
  GI50: > 100 µM
  TGI: > 100 µM
[7]
  GI50: > 100 µM
  TGI: > 100 µM
[8]
  GI50: > 100 µM
  TGI: > 100 µM
[9]
  GI50: > 100 µM
  TGI: > 100 µM
[10]
  GI50: > 100 µM
  TGI: > 100 µM
[11]
  GI50: > 100 µM
  TGI: > 100 µM
[12]
  GI50: > 100 µM
  TGI: > 100 µM
[13]
  GI50: > 100 µM
  TGI: > 100 µM
[14]
  GI50: > 100 µM
  TGI: > 100 µM
[15]
  GI50: > 100 µM
  TGI: > 100 µM
[16]
  GI50: > 100 µM
  TGI: > 100 µM
[17]
  GI50: > 100 µM
  TGI: > 100 µM
[18]
  GI50: > 100 µM
  TGI: > 100 µM
[19]
  GI50: > 100 µM
  TGI: > 100 µM
[20]
  GI50: > 100 µM
  TGI: > 100 µM
[21]
  GI50: > 100 µM
  TGI: > 100 µM
[22]
  GI50: > 100 µM
  TGI: > 100 µM
[23]
  GI50: > 100 µM
  TGI: > 100 µM
[24]
  GI50: > 100 µM
  TGI: > 100 µM
[25]
  GI50: > 100 µM
  TGI: > 100 µM
[26]
  GI50: > 100 µM
  TGI: > 100 µM
[27]
  GI50: > 100 µM
  TGI: > 100 µM
[28]
  GI50: > 100 µM
  TGI: > 100 µM
[29]
  GI50: > 100 µM
  TGI: > 100 µM
[30]
  GI50: > 100 µM
  TGI: > 100 µM
[31]
  GI50: > 100 µM
  TGI: > 100 µM
[32]
  GI50: > 100 µM
  TGI: > 100 µM
[33]
  GI50: > 100 µM
  TGI: > 100 µM
[34]
  GI50: > 100 µM
  TGI: > 100 µM
[35]
  GI50: > 100 µM
  TGI: > 100 µM
[36]
  GI50: > 100 µM
  TGI: > 100 µM
[37]
  GI50: > 100 µM
  TGI: > 100 µM
[38]
  GI50: > 100 µM
  TGI: > 100 µM
[39]
  GI50: 47.4 µM
  TGI: > 100 µM
[40]
  GI50: > 100 µM
  TGI: > 100 µM
[41]
  GI50: > 100 µM
  TGI: > 100 µM
[42]
  GI50: > 100 µM
  TGI: > 100 µM
[43]
  GI50: > 100 µM
  TGI: > 100 µM
[44]
  GI50: > 100 µM
  TGI: > 100 µM
[45]
  GI50: > 100 µM
  TGI: > 100 µM
[46]
  GI50: > 100 µM
  TGI: > 100 µM
[47]
  GI50: > 100 µM
  TGI: > 100 µM
[48]
  GI50: > 100 µM
  TGI: > 100 µM
[49]
  GI50: > 100 µM
  TGI: > 100 µM
[50]
  GI50: > 100 µM
  TGI: > 100 µM

## O=C(N=c1nc(NC(=O)c2ccccc2)ss1)c1ccccc1
[51]
  TGI: 75.8 µM
[1]
  TGI: > 100 µM
[2]
  TGI: > 100 µM
[3]
  TGI: 42.4 µM
[4]
  TGI: 34.7 µM
[5]
  TGI: 40.6 µM
[6]
  TGI: > 100 µM
[52]
  TGI: > 100 µM
[7]
  TGI: 70.6 µM
[8]
  TGI: 87.6 µM
[9]
  TGI: > 100 µM
[53]
  TGI: 75.4 µM
[10]
  TGI: 48.1 µM
[54]
  TGI: > 100 µM
[11]
  TGI: 37.9 µM
[12]
  TGI: > 100 µM
[13]
  TGI: > 100 µM
[14]
  TGI: > 100 µM
[15]
  TGI: 31.6 µM
[16]
  TGI: > 100 µM
[17]
  TGI: > 100 µM
[18]
  TGI: > 100 µM
[19]
  TGI: 55.7 µM
[55]
  TGI: 90.3 µM
[21]
  TGI: 66.6 µM
[22]
  TGI: 68.9 µM
[24]
  TGI: 89.1 µM
[25]
  TGI: 37.6 µM
[26]
  TGI: 82.8 µM
[27]
  TGI: 49.7 µM
[28]
  TGI: 39.7 µM
[29]
  TGI: 76.2 µM
[31]
  TGI: > 100 µM
[32]
  TGI: > 100 µM
[33]
  TGI: > 100 µM
[34]
  TGI: > 100 µM
[35]
  TGI: > 100 µM
[36]
  TGI: 37.1 µM
[37]
  TGI: 62.8 µM
[39]
  TGI: > 100 µM
[40]
  TGI: 92.5 µM
[56]
  TGI: > 100 µM
[41]
  TGI: > 100 µM
[42]
  TGI: > 100 µM
[43]
  TGI: > 100 µM
[44]
  TGI: > 100 µM
[45]
  TGI: 77.6 µM
[46]
  TGI: > 100 µM
[47]
  TGI: > 100 µM
[48]
  TGI: > 100 µM
[49]
  TGI: > 100 µM
[50]
  TGI: 47.3 µM

## Cc1c2ccncc2c(C)c2c1sc1ccccc12
[51]
  TGI: 27.9 µM
[1]
  TGI: 25.2 µM
[2]
  TGI: 21.6 µM
[57]
  TGI: 44.1 µM
[3]
  TGI: 23.1 µM
[4]
  TGI: 23.1 µM
[5]
  TGI: 17.3 µM
[6]
  TGI: 26.7 µM
[52]
  TGI: 23.9 µM
[7]
  TGI: 26.4 µM
[8]
  TGI: 23.1 µM
[9]
  TGI: 31.2 µM
[53]
  TGI: 8.98 µM
[10]
  TGI: 47.2 µM
[54]
  TGI: 42.9 µM
[11]
  TGI: 21.1 µM
[12]
  TGI: 46.7 µM
[58]
  TGI: 25 µM
[13]
  TGI: 17.5 µM
[59]
  TGI: 39.3 µM
[14]
  TGI: 25.9 µM
[15]
  TGI: 15.7 µM
[16]
  TGI: 7.28 µM
[17]
  TGI: 48.9 µM
[19]
  TGI: 29.6 µM
[20]
  TGI: 18.6 µM
[21]
  TGI: 23.8 µM
[22]
  TGI: 34.4 µM
[60]
  TGI: > 100 µM
[25]
  TGI: 22.6 µM
[26]
  TGI: 25.1 µM
[27]
  TGI: 18.3 µM
[28]
  TGI: 14.3 µM
[29]
  TGI: 26.4 µM
[30]
  TGI: 28.5 µM
[31]
  TGI: 37.8 µM
[32]
  TGI: 21.5 µM
[33]
  TGI: 64.3 µM
[34]
  TGI: 21.9 µM
[35]
  TGI: 41.1 µM
[36]
  TGI: 23.8 µM
[61]
  TGI: 35.9 µM
[62]
  TGI: 18.1 µM
[39]
  TGI: 36.5 µM
[40]
  TGI: 25.2 µM
[41]
  TGI: 31 µM
[63]
  TGI: 39.5 µM
[43]
  TGI: 29.1 µM
[44]
  TGI: 15.8 µM
[45]
  TGI: 48 µM
[46]
  TGI: 50.4 µM
[47]
  TGI: 22.1 µM
[48]
  TGI: 32.7 µM
[64]
  TGI: 47.6 µM
[49]
  TGI: 30.4 µM
[50]
  TGI: 26.9 µM
[65]
  TGI: 29.7 µM
[66]
  TGI: 26.4 µM
